Data as given in ChEMBL document CHEMBL1144987, “Synthesis and In vivo anti-inflammatory activity of long-chain 2-amino-alcohols” (2003).

What was measured:
Assay type in all cases: functional
Rattus norvegicus [1] = assay: Analgesic activity in rats by acetic acid writhing test at a dose of 0.017 mmol/kg
Rattus norvegicus [2] = assay: In vivo antiinflammatory activity by rat carrageenan-induced paw edema assay
Rattus norvegicus [3] = assay: Analgesic activity in rats by acetic acid writhing test at a dose of 0.010 mmol/kg

SMILES | Analgesic activity (Rattus norvegicus [1]) [%] | ED50 (Rattus norvegicus [2]) [µmol/kg] | Analgesic activity (Rattus norvegicus [3]) [%]
CCCCCCCCCCCCCC[C@H](N)CO.Cl | 89.2 | 17 | –
CCCCCCCCCCCCCC[C@@H](N)CO.Cl | 72.6 | 17 | –
CCCCCCCCCCCCOC[C@@H](N)CO.Cl | – | 10 | 95.6
CCCCCCCC/C=C/CCCCCC[C@H](N)CO.Cl | – | 10 | 88.1
COc1ccc2c(c1)c(CC(=O)O)c(C)n2C(=O)c1ccc(Cl)cc1 [INDOMETHACIN] | 47 | 11 | –
